According to ChEMBL document CHEMBL3885881, “DrugMatrix”:

Species: Rattus norvegicus
Assay type: toxicity, organism-based, Sprague-Dawley
Settings: in vivo, po, route oral GAVAGE, vehicle 100 % SALINE; for ABSOLUTE EOSINOPHIL / ABSOLUTE LYMPHOCYTE / ABSOLUTE MONOCYTE / ABSOLUTE SEGMENTED NEUTROPHIL / BASOPHIL / EOSINOPHIL / ERYTHROCYTE COUNT / HEMATOCRIT / HEMOGLOBIN / LEUKOCYTE COUNT / LYMPHOCYTE / MEAN CORPUSCULAR HEMOGLOBIN / MEAN CORPUSCULAR HEMOGLOBIN CONCENTRATION / MEAN CORPUSCULAR VOLUME / MONOCYTE / NEUTROPHIL / NUCLEATED RED BLOOD CELLS / PLATELET COUNT: tissue Blood; for ALANINE AMINOTRANSFERASE / ALBUMIN / ALKALINE PHOSPHATASE / ASPARTATE AMINOTRANSFERASE / BLOOD UREA NITROGEN / CARBON DIOXIDE / CHLORIDE / CHOLESTEROL / CREATINE PHOSPHOKINASE / CREATININE / GLUCOSE / LACTATE DEHYDROGENASE / LIPASE / PHOSPHORUS / POTASSIUM / SODIUM / TOTAL BILIRUBIN / TOTAL PROTEIN / URIC ACID: tissue Plasma
[1] = 0 mg/kg, 6 h, vehicle control, dose level Control, time 0.25 day
[2] = 0 mg/kg, 24 h, vehicle control, dose level Control, time 1 day
[3] = 10 mg/kg, 6 h, dose level Low, time 0.25 day

Description: DrugMatrix - Regimen: Single

O=[As][O-].[Na+] [SODIUM ARSENITE]
ABSOLUTE EOSINOPHIL [1]: 24 CELLS/uL
ABSOLUTE LYMPHOCYTE [1]: 11958.17 CELLS/uL
ABSOLUTE MONOCYTE [1]: 398.83 CELLS/uL
ABSOLUTE SEGMENTED NEUTROPHIL [1]: 1252.33 CELLS/uL
BASOPHIL [1]: 0%
EOSINOPHIL [1]: 0.17%
ERYTHROCYTE COUNT [1]: 5.37 x10E6/uL
HEMATOCRIT [1]: 35.6%
HEMOGLOBIN [1]: 13.05 G/DL
LEUKOCYTE COUNT [1]: 13.63 x10E3/uL
LYMPHOCYTE [1]: 87.67%
MEAN CORPUSCULAR HEMOGLOBIN [1]: 24.28 pg
MEAN CORPUSCULAR HEMOGLOBIN CONCENTRATION [1]: 36.67 G/DL
MEAN CORPUSCULAR VOLUME [1]: 66.28 fL
MONOCYTE [1]: 2.83%
NEUTROPHIL [1]: 9.33%
NUCLEATED RED BLOOD CELLS [1]: 0 /100WBC
PLATELET COUNT [1]: 947.83 x10E3/uL
ALANINE AMINOTRANSFERASE [1]: 51 u/L
ALBUMIN [1]: 4.02 G/DL
ALKALINE PHOSPHATASE [1]: 312.33 u/L
ASPARTATE AMINOTRANSFERASE [1]: 98.17 u/L
BLOOD UREA NITROGEN [1]: 9.5 mg/dL
CARBON DIOXIDE [1]: 18.83 mmol/L
CHLORIDE [1]: 103.5 MEQ/L
CHOLESTEROL [1]: 69.5 mg/dL
CREATINE PHOSPHOKINASE [1]: 580.17 u/L
CREATININE [1]: 0.53 mg/dL
GLUCOSE [1]: 175.67 mg/dL
LACTATE DEHYDROGENASE [1]: 295.5 u/L
LIPASE [1]: 8.17 u/L
PHOSPHORUS [1]: 14.12 mg/dL
POTASSIUM [1]: 5.77 MEQ/L
SODIUM [1]: 144.13 MEQ/L
TOTAL BILIRUBIN [1]: 0.12 mg/dL
TOTAL PROTEIN [1]: 4.87 G/DL
URIC ACID [1]: 2.25 mg/dL
ABSOLUTE EOSINOPHIL [2]: 0 CELLS/uL
ABSOLUTE LYMPHOCYTE [2]: 12232.83 CELLS/uL
ABSOLUTE MONOCYTE [2]: 20.33 CELLS/uL
ABSOLUTE SEGMENTED NEUTROPHIL [2]: 780.17 CELLS/uL
BASOPHIL [2]: 0%
EOSINOPHIL [2]: 0%
ERYTHROCYTE COUNT [2]: 5.18 x10E6/uL
HEMATOCRIT [2]: 33.48%
HEMOGLOBIN [2]: 13.22 G/DL
LEUKOCYTE COUNT [2]: 13.03 x10E3/uL
LYMPHOCYTE [2]: 93.33%
MEAN CORPUSCULAR HEMOGLOBIN [2]: 25.57 pg
MEAN CORPUSCULAR HEMOGLOBIN CONCENTRATION [2]: 39.52 G/DL
MEAN CORPUSCULAR VOLUME [2]: 64.65 fL
MONOCYTE [2]: 0.17%
NEUTROPHIL [2]: 6.5%
NUCLEATED RED BLOOD CELLS [2]: 0 /100WBC
PLATELET COUNT [2]: 931.5 x10E3/uL
ALANINE AMINOTRANSFERASE [2]: 60.83 u/L
ALBUMIN [2]: 4.18 G/DL
ALKALINE PHOSPHATASE [2]: 283.33 u/L
ASPARTATE AMINOTRANSFERASE [2]: 80.5 u/L
BLOOD UREA NITROGEN [2]: 11.83 mg/dL
CARBON DIOXIDE [2]: 35.33 mmol/L
CHLORIDE [2]: 98.5 MEQ/L
CHOLESTEROL [2]: 80 mg/dL
CREATINE PHOSPHOKINASE [2]: 181.83 u/L
CREATININE [2]: 0.2 mg/dL
GLUCOSE [2]: 142.67 mg/dL
LACTATE DEHYDROGENASE [2]: 65.5 u/L
LIPASE [2]: 9.83 u/L
PHOSPHORUS [2]: 9.82 mg/dL
POTASSIUM [2]: 5.69 MEQ/L
SODIUM [2]: 143.35 MEQ/L
TOTAL BILIRUBIN [2]: 0.15 mg/dL
TOTAL PROTEIN [2]: 6.2 G/DL
URIC ACID [2]: 0.42 mg/dL
ABSOLUTE EOSINOPHIL [3]: 25.17 CELLS/uL
ABSOLUTE LYMPHOCYTE [3]: 12416.17 CELLS/uL
ABSOLUTE MONOCYTE [3]: 214.33 CELLS/uL
ABSOLUTE SEGMENTED NEUTROPHIL [3]: 1561 CELLS/uL
BASOPHIL [3]: 0%
EOSINOPHIL [3]: 0.17%
ERYTHROCYTE COUNT [3]: 5.72 x10E6/uL
HEMATOCRIT [3]: 37.97%
HEMOGLOBIN [3]: 13.92 G/DL
LEUKOCYTE COUNT [3]: 14.22 x10E3/uL
LYMPHOCYTE [3]: 87.33%
MEAN CORPUSCULAR HEMOGLOBIN [3]: 24.38 pg
MEAN CORPUSCULAR HEMOGLOBIN CONCENTRATION [3]: 36.67 G/DL
MEAN CORPUSCULAR VOLUME [3]: 66.45 fL
MONOCYTE [3]: 1.5%
NEUTROPHIL [3]: 11%
NUCLEATED RED BLOOD CELLS [3]: 0 /100WBC
PLATELET COUNT [3]: 1120 x10E3/uL
ALANINE AMINOTRANSFERASE [3]: 87.17 u/L
ALBUMIN [3]: 4.02 G/DL
ALKALINE PHOSPHATASE [3]: 245.5 u/L
ASPARTATE AMINOTRANSFERASE [3]: 141.33 u/L
BLOOD UREA NITROGEN [3]: 12.83 mg/dL
CARBON DIOXIDE [3]: 19 mmol/L
CHLORIDE [3]: 104 MEQ/L
CHOLESTEROL [3]: 63.17 mg/dL
CREATINE PHOSPHOKINASE [3]: 934.5 u/L
CREATININE [3]: 0.27 mg/dL
GLUCOSE [3]: 184.33 mg/dL
LACTATE DEHYDROGENASE [3]: 393.33 u/L
LIPASE [3]: 8.83 u/L
PHOSPHORUS [3]: 14.3 mg/dL
POTASSIUM [3]: 6.23 MEQ/L
SODIUM [3]: 142.98 MEQ/L
TOTAL BILIRUBIN [3]: 0.12 mg/dL
TOTAL PROTEIN [3]: 5.28 G/DL
URIC ACID [3]: 2.03 mg/dL
